{"source": "patent US4000281A", "about": "“Pyrazole derivatives” (priority 1971, dated 1976)", "tested_on": "rhinovirus type 55 (strain Wis 315E)", "assay": "Gradient plate plaque-reduction technique in HeLa cells, rhinovirus type 55", "format": "cell-based, human", "design": "key to ACTIVITY: +: active", "method": "A further series of tests was performed in which the inhibitory concentrations of 3-(4-pyridyl)-4-(2-hydroxyphenyl)-5-ethylpyrazole against various human types of rhinovirus were determined by the gradient plate plaque-reduction technique. Cultures of HeLa cancer cells were used of which two were prepared for each test. One culture was treated with the above compound which was applied in gradient while the other culture served as control. Both cultures were then infected with a human type of rhinovirus. The inhibitory concentration was determined by measuring the zone of inhibition on the cellsheet. Six types of rhinovirus were employed and the following results registered.", "data": [{"smiles": "CCc1[nH]nc(-c2ccncc2)c1-c1ccccc1O", "note": "[Compound A, 3-(4-pyridyl)-4-(2-hydroxyphenyl)-5-ethylpyrazole]", "values": [{"measurement": "ACTIVITY", "result": "+"}, {"measurement": "MIC", "setting": "Enterovirus, read-out: MINIMUM INHIBITORY Concentration", "result": 20, "unit": "µg/mL"}]}]}
